Source: patent US11001587B2, “Substituted indazoles as phosphatidylinositol kinase inhibitors” (CUROVIR AB, priority 2017, dated 2021)

Columns and labels:
[1] = test system: Enterovirus 71; assay: In vitro CPE assay in mammalian cell culture, EV71; assay type: cell-based; conditions: Enterovirus A, viral cytopathic effect in mammalian cell culture, read-out: EV71 inhibition capacity (IC50)
[2] = test system: coxsackie B3 virus; assay: In vitro CPE assay in mammalian cell culture, B3; assay type: cell-based; conditions: Enterovirus B, viral cytopathic effect in mammalian cell culture, read-out: B3 inhibition capacity (IC50)
[3] = Metabolic stability in human liver microsomes; assay type: in vitro ADME; conditions: for Remaining after 1 h, HLM: human liver microsomes, 5 μM test item, 0.125 mg/mL microsomal protein; for half-life at 5 μM: human, microsomes
Experimental: (§1) Metabolic stability in human and rat liver microsomesMetabolic stability was studied using human (HLM) or rat (RLM) liver microsomes. The final composition of the assay included 5 μM of test item and reference item (Diclofenac or Imipramine) prepared from DMSO stock, so that the final concentration of DMSO was 0.1%, 0.125 mg/mL microsomal protein and cofactors (5.0 mM G-6-P, 0.06 U/mL G-6-PDH, 2.0 mM MgCl2, 1.0 mM NADP^+). Test and reference items were incubated with human or rat liver microsomes with or without cofactors. The reaction mixture (100 μL) was removed at specified time periods and the reaction was stopped by addition of stop solution. The samples were extracted in presence of internal standard and were analyzed using LC-MS/MS. The percent of the test/reference item remaining after a specified incubation period was calculated with respect to the peak area ratio at time 0 min.

[4] = test system: coxsackie B2 virus; assay: In vitro CPE assay in mammalian cell culture, B2; assay type: cell-based; conditions: viral cytopathic effect in mammalian cell culture, read-out: B2 inhibition capacity (IC50)
[5] = test system: coxsackie B4 virus; assay: In vitro CPE assay in mammalian cell culture, B4; assay type: cell-based; conditions: Enterovirus B, viral cytopathic effect in mammalian cell culture, read-out: B4 inhibition capacity (IC50)
[6] = test system: polio virus Sabin 1; assay: organism not typed; assay type: cell-based; conditions: read-out: Polio 1 inhibition capacity (IC50)
[7] = test system: coxsackie B5 virus; assay: In vitro CPE assay in mammalian cell culture, B5; assay type: cell-based; conditions: viral cytopathic effect in mammalian cell culture, read-out: B5 inhibition capacity (IC50)
[8] = in vivo; design: species or system Sprague Dawley rats; conditions: male, Sprague Dawley, rat, po, 50 mg/kg
[9] = molecular target: PI3Kβ (Homo sapiens, UniProt P42338); assay: PI3 kinase inhibition HTRF assay; assay type: biochemical; conditions: * no inhibition at the highest tested concentration 1 μM
Experimental: (§2) Phosphatidyl inositol kinase inhibition assay Inhibition of PI4 kinases was studied using the ADP-Glo™ Kinase Assay which is a luminescent kinase assay that measures ADP formed from a kinase reaction, wherein ADP is converted into ATP, which is converted into light by Ultra-Glo™ Luciferase. The assay is performed in two steps; first, after the kinase reaction, an equal volume of ADP-Glo™ Reagent is added to terminate the kinase reaction and deplete the remaining ATP. In the second step, the Kinase Detection Reagent is added, which simultaneously converts ADP to ATP and allows the newly synthesized ATP to be measured using a coupled luciferase/luciferin reaction. The luminescent signal produced is proportional to the activity of the kinase. Inhibition of PI3 kinases was studied using the HTRF (homogeneous time-resolved fluorescence) assay, which is a universal method for identifying and characterizing the phosphotransferase activity induced by any ATP/ADP dependent target. The formation of ADP was detected by a specific monoclonal antibody labeled with Eu^3+ cryptate, and directly correlated with the amount of phosphorylated substrate.

[10] = molecular target: PI3Kα (Homo sapiens, UniProt P42336); assay: PI3 kinase inhibition HTRF assay; assay type: biochemical; conditions: * no inhibition at the highest tested concentration 1 μM
Experimental: as §2

[11] = test system: Enterovirus 68; assay: In vitro CPE assay in mammalian cell culture, EV68; assay type: cell-based; conditions: Enterovirus D, viral cytopathic effect in mammalian cell culture, read-out: EV68 inhibition capacity (IC50)
[12] = test system: coxsackie B1 virus; assay: In vitro CPE assay in mammalian cell culture, B1; assay type: cell-based; conditions: viral cytopathic effect in mammalian cell culture, read-out: B1 inhibition capacity (IC50)
[13] = Metabolic stability in rat liver microsomes; assay type: in vitro ADME; conditions: 5 μM test item, 0.125 mg/mL microsomal protein
Experimental: as §1

[14] = test system: Enterovirus 6; assay: In vitro CPE assay in mammalian cell culture, EV6; assay type: cell-based; conditions: viral cytopathic effect in mammalian cell culture, read-out: EV6 inhibition capacity (IC50)
[15] = molecular target: PI4KIIIβ (Homo sapiens, UniProt Q9UBF8); assay: Phosphatidyl inositol kinase inhibition assay (ADP-Glo Kinase Assay); assay type: biochemical
Experimental: as §2

[16] = molecular target: PI4KIIIα (Homo sapiens, UniProt P42356); assay: as above; assay type: biochemical; conditions: * no inhibition at the highest tested concentration 1 μM
Experimental: as §2

[17] = in vitro; assay type: in vitro ADME; conditions: plasma, pH 7.4
Experimental: Plasma protein binding study was performed by using a Rapid Equilibrium Dialysis (RED) device containing dialysis membrane with a molecular weight cut-off of 8,000 Daltons. Each dialysis insert contains two chambers. The red chamber was for the plasma while the white chamber was for the buffer. The human and rat plasma (pH adjusted to 7.40) samples of test items and reference items (Warfarin and Propranolol) were prepared at a required test concentration of 5 μM using 5 mM DMSO stocks (final DMSO concentration was 0.1%). 300 μL of plasma sample was added into the sample chamber. 500 μL of buffer was added into the buffer chamber. After sealing the RED device with an adhesive film, incubation was done at 37° C. with shaking at 300 rpm for 4 h. Following incubation, an aliquot of 50 μL was removed from each well (plasma and buffer side) and diluted with equal volume of opposite matrix to nullify the matrix effect. The specimens were subjected to sample extraction in presence of internal standard by liquid-liquid extraction/protein precipitation method. After extraction, the samples were transferred into labeled auto sampler vials and submitted to LC-MS/MS analysis.

[18] = test system: Enterovirus 30; assay: In vitro CPE assay in mammalian cell culture, EV30; assay type: cell-based; conditions: viral cytopathic effect in mammalian cell culture, read-out: EV30 inhibition capacity (IC50)

Chain of PI3Kα (P42336 whole entry, species assumed): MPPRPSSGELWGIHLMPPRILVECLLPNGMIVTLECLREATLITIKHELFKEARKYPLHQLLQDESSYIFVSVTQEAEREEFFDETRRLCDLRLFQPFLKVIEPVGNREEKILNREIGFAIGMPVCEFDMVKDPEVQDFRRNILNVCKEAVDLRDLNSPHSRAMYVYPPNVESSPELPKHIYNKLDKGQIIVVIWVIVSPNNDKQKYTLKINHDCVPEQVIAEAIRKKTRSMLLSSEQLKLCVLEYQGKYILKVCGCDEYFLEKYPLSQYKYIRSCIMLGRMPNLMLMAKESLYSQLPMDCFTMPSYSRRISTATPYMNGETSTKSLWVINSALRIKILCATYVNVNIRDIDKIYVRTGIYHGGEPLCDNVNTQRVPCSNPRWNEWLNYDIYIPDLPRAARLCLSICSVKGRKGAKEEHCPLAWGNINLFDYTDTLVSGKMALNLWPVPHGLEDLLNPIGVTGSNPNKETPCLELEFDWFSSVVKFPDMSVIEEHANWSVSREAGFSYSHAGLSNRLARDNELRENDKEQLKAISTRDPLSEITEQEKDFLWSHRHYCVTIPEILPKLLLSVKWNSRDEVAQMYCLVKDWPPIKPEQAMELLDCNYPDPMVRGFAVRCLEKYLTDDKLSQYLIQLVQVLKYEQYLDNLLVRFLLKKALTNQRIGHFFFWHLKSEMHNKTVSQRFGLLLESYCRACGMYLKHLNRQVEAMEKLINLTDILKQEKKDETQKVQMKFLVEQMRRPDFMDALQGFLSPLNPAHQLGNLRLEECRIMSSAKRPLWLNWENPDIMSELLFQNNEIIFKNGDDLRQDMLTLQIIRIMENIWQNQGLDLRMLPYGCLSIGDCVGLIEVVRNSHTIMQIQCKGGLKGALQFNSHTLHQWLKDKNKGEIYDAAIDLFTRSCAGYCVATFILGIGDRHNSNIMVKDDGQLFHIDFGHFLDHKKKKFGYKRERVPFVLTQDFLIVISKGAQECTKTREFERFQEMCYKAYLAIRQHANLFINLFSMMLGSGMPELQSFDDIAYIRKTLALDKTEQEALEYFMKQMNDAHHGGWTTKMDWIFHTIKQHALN
Chain of PI3Kα (P27986 whole entry partner, species assumed): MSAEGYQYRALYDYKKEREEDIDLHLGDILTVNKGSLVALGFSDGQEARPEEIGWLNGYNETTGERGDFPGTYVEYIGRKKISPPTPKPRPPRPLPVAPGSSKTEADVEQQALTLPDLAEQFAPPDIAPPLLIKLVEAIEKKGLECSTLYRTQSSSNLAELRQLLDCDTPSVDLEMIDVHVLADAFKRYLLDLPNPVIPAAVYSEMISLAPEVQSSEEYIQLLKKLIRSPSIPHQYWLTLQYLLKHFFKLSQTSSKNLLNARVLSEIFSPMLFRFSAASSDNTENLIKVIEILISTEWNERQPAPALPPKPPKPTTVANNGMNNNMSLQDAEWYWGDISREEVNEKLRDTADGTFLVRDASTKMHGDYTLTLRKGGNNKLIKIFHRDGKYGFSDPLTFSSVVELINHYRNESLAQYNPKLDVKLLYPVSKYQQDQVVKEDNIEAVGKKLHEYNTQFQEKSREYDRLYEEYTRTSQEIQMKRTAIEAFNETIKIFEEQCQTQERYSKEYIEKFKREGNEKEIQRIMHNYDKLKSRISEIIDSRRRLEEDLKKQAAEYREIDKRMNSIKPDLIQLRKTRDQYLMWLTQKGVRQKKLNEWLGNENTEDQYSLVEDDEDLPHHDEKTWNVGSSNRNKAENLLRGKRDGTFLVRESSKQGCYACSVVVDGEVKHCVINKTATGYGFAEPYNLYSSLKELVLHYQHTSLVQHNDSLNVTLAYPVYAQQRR
Chain of PI3Kβ (P42338 whole entry, species assumed): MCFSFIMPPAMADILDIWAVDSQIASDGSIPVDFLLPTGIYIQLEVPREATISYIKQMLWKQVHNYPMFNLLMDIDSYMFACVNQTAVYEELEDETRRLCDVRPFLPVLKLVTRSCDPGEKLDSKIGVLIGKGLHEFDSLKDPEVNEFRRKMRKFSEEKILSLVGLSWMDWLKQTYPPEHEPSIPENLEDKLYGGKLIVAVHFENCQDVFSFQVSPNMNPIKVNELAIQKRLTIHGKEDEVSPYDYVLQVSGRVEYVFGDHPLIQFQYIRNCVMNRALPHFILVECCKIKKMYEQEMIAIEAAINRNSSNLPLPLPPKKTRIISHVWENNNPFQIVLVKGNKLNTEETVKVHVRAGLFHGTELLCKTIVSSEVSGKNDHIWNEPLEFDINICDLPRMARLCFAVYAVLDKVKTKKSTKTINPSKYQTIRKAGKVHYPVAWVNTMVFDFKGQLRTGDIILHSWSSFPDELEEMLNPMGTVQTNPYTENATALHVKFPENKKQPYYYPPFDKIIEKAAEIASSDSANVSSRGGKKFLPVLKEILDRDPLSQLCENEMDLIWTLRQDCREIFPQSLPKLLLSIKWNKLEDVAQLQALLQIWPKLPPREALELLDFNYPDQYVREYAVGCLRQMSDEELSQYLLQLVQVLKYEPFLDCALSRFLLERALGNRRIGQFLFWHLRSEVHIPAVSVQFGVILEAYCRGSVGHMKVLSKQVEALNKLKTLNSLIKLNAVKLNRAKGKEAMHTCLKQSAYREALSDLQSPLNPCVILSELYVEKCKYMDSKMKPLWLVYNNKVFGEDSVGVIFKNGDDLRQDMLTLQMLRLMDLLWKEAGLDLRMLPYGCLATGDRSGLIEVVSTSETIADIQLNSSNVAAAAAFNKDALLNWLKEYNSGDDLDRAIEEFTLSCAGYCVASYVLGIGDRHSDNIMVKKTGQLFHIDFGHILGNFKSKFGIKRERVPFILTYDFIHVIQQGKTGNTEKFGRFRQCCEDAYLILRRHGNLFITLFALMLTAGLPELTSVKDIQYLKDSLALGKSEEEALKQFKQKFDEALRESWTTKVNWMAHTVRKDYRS
Chain of PI3Kβ (P27986 whole entry partner, species assumed): as the sequence (P27986 whole entry partner, species assumed) above
Chain of PI4KIIIα (P42356 whole entry): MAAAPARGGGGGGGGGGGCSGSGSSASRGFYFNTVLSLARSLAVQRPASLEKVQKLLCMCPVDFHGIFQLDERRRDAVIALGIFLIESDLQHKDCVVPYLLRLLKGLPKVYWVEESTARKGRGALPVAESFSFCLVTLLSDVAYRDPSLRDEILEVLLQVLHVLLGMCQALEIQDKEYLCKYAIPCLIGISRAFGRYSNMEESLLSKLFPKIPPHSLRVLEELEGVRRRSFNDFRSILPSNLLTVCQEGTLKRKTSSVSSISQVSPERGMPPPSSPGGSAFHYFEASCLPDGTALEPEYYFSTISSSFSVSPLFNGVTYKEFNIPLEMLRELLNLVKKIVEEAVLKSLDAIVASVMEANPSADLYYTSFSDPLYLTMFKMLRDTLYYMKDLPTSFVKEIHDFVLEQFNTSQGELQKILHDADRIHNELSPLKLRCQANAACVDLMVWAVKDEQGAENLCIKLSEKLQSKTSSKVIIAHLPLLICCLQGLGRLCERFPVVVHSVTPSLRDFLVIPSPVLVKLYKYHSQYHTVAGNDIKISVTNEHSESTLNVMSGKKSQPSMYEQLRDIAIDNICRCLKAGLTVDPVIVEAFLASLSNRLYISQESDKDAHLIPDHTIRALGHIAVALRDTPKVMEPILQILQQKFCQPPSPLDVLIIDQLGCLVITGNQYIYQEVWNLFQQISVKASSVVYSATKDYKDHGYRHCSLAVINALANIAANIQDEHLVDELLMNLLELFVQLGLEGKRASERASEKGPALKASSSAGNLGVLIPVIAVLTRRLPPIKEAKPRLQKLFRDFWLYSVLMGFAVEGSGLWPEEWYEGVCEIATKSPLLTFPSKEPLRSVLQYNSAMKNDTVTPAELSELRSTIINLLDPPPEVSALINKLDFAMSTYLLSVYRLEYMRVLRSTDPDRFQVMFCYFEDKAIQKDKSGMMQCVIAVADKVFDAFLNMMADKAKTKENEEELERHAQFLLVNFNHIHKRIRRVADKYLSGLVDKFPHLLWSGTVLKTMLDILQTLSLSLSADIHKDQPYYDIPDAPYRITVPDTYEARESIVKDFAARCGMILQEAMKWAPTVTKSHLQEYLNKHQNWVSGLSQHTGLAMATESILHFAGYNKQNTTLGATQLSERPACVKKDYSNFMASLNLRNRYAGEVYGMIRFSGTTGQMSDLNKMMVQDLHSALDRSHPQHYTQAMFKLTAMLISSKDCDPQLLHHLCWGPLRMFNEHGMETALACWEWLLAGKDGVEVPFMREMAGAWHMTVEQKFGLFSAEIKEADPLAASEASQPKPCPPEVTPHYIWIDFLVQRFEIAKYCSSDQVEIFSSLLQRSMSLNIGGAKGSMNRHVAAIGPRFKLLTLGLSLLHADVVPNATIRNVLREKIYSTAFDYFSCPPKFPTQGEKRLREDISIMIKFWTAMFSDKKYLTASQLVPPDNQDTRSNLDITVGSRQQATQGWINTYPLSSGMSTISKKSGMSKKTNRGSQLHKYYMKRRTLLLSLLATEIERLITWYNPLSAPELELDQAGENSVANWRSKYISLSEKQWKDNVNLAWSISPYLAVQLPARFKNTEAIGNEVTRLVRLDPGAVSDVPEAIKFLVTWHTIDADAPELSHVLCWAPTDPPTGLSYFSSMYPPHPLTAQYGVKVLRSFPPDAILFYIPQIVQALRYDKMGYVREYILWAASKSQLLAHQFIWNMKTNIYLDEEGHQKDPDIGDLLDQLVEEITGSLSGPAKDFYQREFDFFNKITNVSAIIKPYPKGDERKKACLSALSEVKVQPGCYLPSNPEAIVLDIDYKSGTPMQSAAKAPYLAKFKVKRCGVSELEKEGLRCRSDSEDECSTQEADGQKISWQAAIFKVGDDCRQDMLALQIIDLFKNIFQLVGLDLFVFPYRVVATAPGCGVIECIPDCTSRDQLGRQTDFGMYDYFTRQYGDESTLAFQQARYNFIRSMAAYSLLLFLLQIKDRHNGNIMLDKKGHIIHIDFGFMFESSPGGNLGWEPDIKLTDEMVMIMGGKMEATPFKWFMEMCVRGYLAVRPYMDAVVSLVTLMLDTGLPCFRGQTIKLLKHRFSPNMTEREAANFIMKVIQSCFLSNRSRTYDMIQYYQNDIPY

Structure (SMILES)	IC50 [1]	IC50 [2]	Remaining after 1 h, HLM [3]	half-life at 5 μM [3]	IC50 [4]	IC50 [5]	IC50 [6]	IC50 [7]	AUC(0-inf) [8]	AUC(0-t) [8]	AUCextrap [8]	Cmax [8]	MRT last [8]	Tmax [8]	half-life [8]	IC50 [9]	IC50 [10]	IC50 [11]	IC50 [12]	Remaining after 1 h, RLM [13]	further results
Cc1cc(NCc2ccncc2)n2nc(C)c(-c3ccc4c(c3)c(C)nn4C)c2n1 [Example 8, 3-(1,3-dimethyl-1H-indazol-5-yl)-2,5-dimethyl-N-(pyridin-4-ylmethyl)pyrazolo[1,5-a]pyrimidin-7-amine]	< 0.1 nM	< 0.1 nM	86%	> 2 h	< 0.1 nM	< 10 nM	< 0.1 nM	< 0.1 nM	197 ± 27.1 µg·h/mL	185 ± 13.3 µg·h/mL	5.7 ± 6.1%	12900 ± 700 ng/mL	6.8 ± 0.8 h	1.7 ± 0.6 h	5.4 ± 2.5 h	1500 nM	> 1000 nM	< 0.1 nM	< 0.1 nM	90%	IC50 [14]: < 100 nM; IC50 [15]: 0.9 nM; IC50 [16]: 1300 nM; fraction unbound at 4 h, 5 μM ([17]; human): 0.027; fraction unbound at 4 h, 5 μM ([17]; rat): 0.024; IC50 [18]: < 1 nM
Cc1nc(NCc2ccncc2)n2nc(C)c(-c3ccc4c(c3)c(C)nn4C)c2n1 [Example 20, 8-(1,3-dimethyl-1H-indazol-5-yl)-2,7-dimethyl-N-(pyridin-4-ylmethyl)pyrazolo[1,5-a][1,3,5]triazin-4-amine]	< 10 nM	< 1 nM	78%	> 2 h	< 1 nM	< 10 nM	< 1 nM	< 1 nM	115 ± 9.4 µg·h/mL	110 ± 8.3 µg·h/mL	5.1 ± 4.9%	8000 ± 1500 ng/mL	6.8 ± 0.9 h	2 h	5 ± 2.3 h	> 1000 nM	> 1000 nM	< 10 nM	< 1 nM	96%	IC50 [14]: < 1000 nM; IC50 [15]: 1.2 nM; IC50 [16]: > 1000 nM; fraction unbound at 4 h, 5 μM ([17]; human): 0.906; fraction unbound at 4 h, 5 μM ([17]; rat): 0.031; IC50 [18]: < 10 nM
